According to PubChem BioAssay AID330 (DTP/NCI, 2004):
“And” between values parts separate entries of the source, which are not always exact repeats. Identical values can stand only once. Toxic doses and inconclusive results are not listed.

System: P388 leukemia ip, CD2F1 mice, survival T/C
Assay: NCI In Vivo Anticancer Drug Screen. Data for tumor model P388 Leukemia (intraperitoneal) in CD2F1 (CDF1) mice
Details: endpoint: median survival time, higher = longer survival
Summary of the method: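 Mice carrying the transplanted tumor received test compound or vehicle. Survival was recorded in each group, and the value is the treated-group measurement divided by that of the vehicle-treated control group.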

[1] = dose: 25.0 mg/kg/injection, schedule: Q01DX009 (ip), vehicle: saline
[2] = dose: 50.0 mg/kg/injection, schedule: Q01DX009 (ip), vehicle: saline with Tween-80
[3] = dose: 50.0 mg/kg/injection, schedule: Q01DX009 (ip), vehicle: saline
[4] = dose: 100.0 mg/kg/injection, schedule: Q01DX009 (ip), vehicle: saline
[5] = dose: 200.0 mg/kg/injection, schedule: Q01DX009 (ip), vehicle: saline with Tween-80
[6] = dose: 60.0 mg/kg/injection, schedule: Q01DX005 (ip), vehicle: saline with Tween-80
[7] = dose: 120.0 mg/kg/injection, schedule: Q01DX005 (ip), vehicle: saline with Tween-80
[8] = dose: 240.0 mg/kg/injection, schedule: Q01DX005 (ip), vehicle: saline with Tween-80

## Clc1cc(Cl)c(C[N+]23CN4CN(CN(C4)C2)C3)cc1Cl
dose: 6.25 mg/kg/injection, schedule: Q01DX009 (ip), vehicle: saline
  T/C: 102 % of control
dose: 12.5 mg/kg/injection, schedule: Q01DX009 (ip), vehicle: saline
  T/C: 100 % of control and 107 % of control
[1]
  T/C: 106 % of control and 109 % of control
[2]
  T/C: 122 % of control
[3]
  T/C: 111 % of control and 120 % of control
[4]
  T/C: 117 % of control

## Cc1cc2c(cc1[N+](=O)[O-])NC(CNC(C)C)CC2 (stereo not given)
[2]
  T/C: 101 % of control
dose: 100.0 mg/kg/injection, schedule: Q01DX009 (ip), vehicle: saline with Tween-80
  T/C: 105 % of control
[5]
  T/C: 108 % of control

## CSC1=Nc2cccnc2Nc2cscc21
dose: 15.0 mg/kg/injection, schedule: Q01DX005 (ip), vehicle: saline with Tween-80
  T/C: 102 % of control
dose: 30.0 mg/kg/injection, schedule: Q01DX005 (ip), vehicle: saline with Tween-80
  T/C: 98 % of control
[6]
  T/C: 112 % of control and 94 % of control

## COC(=O)c1c(C(N)=O)c(C)n(NC(=O)c2ccccc2)c1C
[6]
  T/C: 95 % of control
[7]
  T/C: 93 % of control
[8]
  T/C: 94 % of control

## O=C1CSC(c2cccc(Cl)c2)N1c1nncs1 (stereo not given)
[6]
  T/C: 109 % of control
[7]
  T/C: 97 % of control
[8]
  T/C: 98 % of control

## O=C(O)Cc1cn2cc(Cl)cc(Cl)c2n1
dose: 100.0 mg/kg/injection, schedule: Q01DX001 (ip), vehicle: Klucel (hydroxypropylcellulose) (HPC)
  T/C: 114 % of control
dose: 200.0 mg/kg/injection, schedule: Q01DX001 (ip), vehicle: Klucel (hydroxypropylcellulose) (HPC)
  T/C: 101 % of control
dose: 400.0 mg/kg/injection, schedule: Q01DX001 (ip), vehicle: Klucel (hydroxypropylcellulose) (HPC)
  T/C: 98 % of control

## O=NN(CCCl)C(=O)Nc1cc(=O)[nH]c(SCc2ccccc2)n1
dose: 10.06 mg/kg/injection, schedule: Q04DX002 (ip), vehicle: Klucel (hydroxypropylcellulose) (HPC)
  T/C: 151 % of control
dose: 40.25 mg/kg/injection, schedule: Q04DX002 (ip), vehicle: Klucel (hydroxypropylcellulose) (HPC)
  T/C: 158 % of control
dose: 80.5 mg/kg/injection, schedule: Q04DX002 (ip), vehicle: Klucel (hydroxypropylcellulose) (HPC)
  T/C: 178 % of control
dose: 161.0 mg/kg/injection, schedule: Q04DX002 (ip), vehicle: Klucel (hydroxypropylcellulose) (HPC)
  T/C: 150 % of control and 158 % of control
dose: 322.0 mg/kg/injection, schedule: Q04DX002 (ip), vehicle: Klucel (hydroxypropylcellulose) (HPC)
  T/C: 101 % of control

## CCOc1ccc(Nc2cc([N+](=O)[O-])ccc2C(=O)O)cc1
[2]
  T/C: 91 % of control
[5]
  T/C: 108 % of control

## CC(=O)Oc1cc2c(cc1C(NC(N)=O)c1ccc3c(c1)OCO3)OCO2 (stereo not given)
dose: 60.0 mg/kg/injection, schedule: Q01DX005 (ip), vehicle: Klucel (hydroxypropylcellulose) (HPC)
  T/C: 100 % of control
dose: 120.0 mg/kg/injection, schedule: Q01DX005 (ip), vehicle: Klucel (hydroxypropylcellulose) (HPC)
  T/C: 93 % of control
dose: 240.0 mg/kg/injection, schedule: Q01DX005 (ip), vehicle: Klucel (hydroxypropylcellulose) (HPC)
  T/C: 92 % of control

## O=C(O)CC(=O)O.[NH-]CC[NH-].[Pt+2]
dose: 6.25 mg/kg/injection, schedule: Q04DX002 (ip), vehicle: saline with Tween-80
  T/C: 111 % of control
[1]
  T/C: 211 % of control
dose: 25.0 mg/kg/injection, schedule: Q04DX002 (ip), vehicle: saline with Tween-80
  T/C: 158 % of control
[3]
  T/C: 94 % of control

## CCCCCCCCCCCCCCCc1c(NC(C)(CC(C)(C)O)[P+](=O)O)c(=O)n(C)n1C (stereo not given)
[3]
  T/C: 96 % of control
[4]
  T/C: 88 % of control

## C#CC(C)(C)Nc1c2ccccc2nc2ccccc12
dose: 50.0 mg/kg/injection, schedule: Q01DX005 (ip), vehicle: saline with Tween-80
  T/C: 96 % of control
dose: 100.0 mg/kg/injection, schedule: Q01DX005 (ip), vehicle: saline with Tween-80
  T/C: 103 % of control
dose: 200.0 mg/kg/injection, schedule: Q01DX005 (ip), vehicle: saline with Tween-80
  T/C: 102 % of control
